Test results published in PubChem BioAssay (NCI).
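1) Cells in 96-well plates. 2) Compound, 48 h, 5 concentrations. 3) Linear interpolation between surrounding doses. 4) Unreached endpoint = highest concentration. At the GI50, growth is halved. The concentration for full growth arrest is given as TGI.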

Tests used:
Experiment in all cases: inhibition of tumour cell growth, NCI panel, 48 h
CCRF-CEM leukemia = system: CCRF-CEM leukemia
M14 melanoma = system: M14 melanoma
SNB-75 CNS = system: SNB-75 CNS
UACC-257 melanoma = system: UACC-257 melanoma
HOP-92 NSCLC = system: HOP-92 NSCLC
CAKI-1 renal = system: CAKI-1 renal
K-562 leukemia = system: K-562 leukemia
NCI/ADR-RES ovarian = system: NCI/ADR-RES ovarian
MCF7 breast = system: MCF7 breast
A549 NSCLC = system: A549 NSCLC
MDA-MB-231 breast = system: MDA-MB-231 breast
NCI-H522 lung = system: NCI-H522 lung
PC-3 prostate = system: PC-3 prostate
IGROV1 ovarian = system: IGROV1 ovarian
SF-539 CNS = system: SF-539 CNS
HL-60(TB) leukemia = system: HL-60(TB) leukemia
BT-549 breast = system: BT-549 breast
HCC-2998 colon = system: HCC-2998 colon
OVCAR-5 ovarian = system: OVCAR-5 ovarian
SW-620 colon = system: SW-620 colon
SK-MEL-5 melanoma = system: SK-MEL-5 melanoma
UO-31 renal = system: UO-31 renal
SK-OV-3 ovarian = system: SK-OV-3 ovarian
SF-268 CNS = system: SF-268 CNS
MOLT-4 leukemia = system: MOLT-4 leukemia
OVCAR-8 ovarian = system: OVCAR-8 ovarian
TK-10 renal = system: TK-10 renal
MDA-MB-435 = system: MDA-MB-435
786-0 renal = system: 786-0 renal
HT29 colon = system: HT29 colon
EKVX NSCLC = system: EKVX NSCLC
RPMI-8226 leukemia = system: RPMI-8226 leukemia
T-47D breast = system: T-47D breast
KM12 colon = system: KM12 colon
OVCAR-4 ovarian = system: OVCAR-4 ovarian
A498 renal = system: A498 renal
RXF 393 renal = system: RXF 393 renal
NCI-H23 lung = system: NCI-H23 lung
LOX IMVI melanoma = system: LOX IMVI melanoma
HOP-62 NSCLC = system: HOP-62 NSCLC
HCT-116 colon = system: HCT-116 colon
HCT-15 colon = system: HCT-15 colon
MALME-3M melanoma = system: MALME-3M melanoma
DU-145 prostate = system: DU-145 prostate
SF-295 CNS = system: SF-295 CNS
OVCAR-3 ovarian = system: OVCAR-3 ovarian
U251 CNS = system: U251 CNS
SN12C renal = system: SN12C renal
ACHN renal = system: ACHN renal
SK-MEL-2 melanoma = system: SK-MEL-2 melanoma
NCI-H460 lung = system: NCI-H460 lung
UACC-62 melanoma = system: UACC-62 melanoma

How did the GI50 (CCRF-CEM leukemia) turn out when `N#Cc1c(N)nc2c(c1-c1ccc(Cl)cc1)COc1ccc(F)cc1-2` was run?
The GI50 was 44.2 µM.

And the TGI (CCRF-CEM leukemia)?
Its TGI is greater than 100 µM.

And the GI50 (M14 melanoma)?
The GI50 was 29.8 µM.

What about the TGI (M14 melanoma) of the same compound?
The TGI was 96.1 µM.

And the GI50 (SNB-75 CNS)?
Its GI50 is greater than 100 µM.

What about the TGI (SNB-75 CNS) of the same compound?
Its TGI is greater than 100 µM.

What about the GI50 (UACC-257 melanoma) of the same compound?
The GI50 was 29.4 µM.

And the TGI (UACC-257 melanoma)?
Its TGI is 90.8 µM.

And the GI50 (HOP-92 NSCLC)?
Its GI50 is 31.6 µM.

And the TGI (HOP-92 NSCLC)?
Its TGI is greater than 100 µM.

And the GI50 (CAKI-1 renal)?
Its GI50 is 25.2 µM.

And the TGI (CAKI-1 renal)?
The TGI was 66.3 µM.

And the GI50 (K-562 leukemia)?
The GI50 was 15.5 µM.

What about the TGI (K-562 leukemia) of the same compound?
Its TGI is 34.1 µM.

And the GI50 (NCI/ADR-RES ovarian)?
The GI50 was 22.9 µM.

And the TGI (NCI/ADR-RES ovarian)?
The TGI was 54.6 µM.

What about the GI50 (MCF7 breast) of the same compound?
Its GI50 is 17.9 µM.

And the TGI (MCF7 breast)?
Its TGI is greater than 100 µM.

What about the GI50 (A549 NSCLC) of the same compound?
Its GI50 is 43.5 µM.

What about the TGI (A549 NSCLC) of the same compound?
Its TGI is greater than 100 µM.

What about the GI50 (MDA-MB-231 breast) of the same compound?
Its GI50 is 11.9 µM.

And the TGI (MDA-MB-231 breast)?
The TGI was 51.8 µM.

What about the GI50 (NCI-H522 lung) of the same compound?
Its GI50 is 23 µM.

And the TGI (NCI-H522 lung)?
The TGI was 59.5 µM.

What about the GI50 (PC-3 prostate) of the same compound?
The GI50 was 29.7 µM.

What about the TGI (PC-3 prostate) of the same compound?
The TGI was 65.7 µM.

And the GI50 (IGROV1 ovarian)?
The GI50 was 14.8 µM.

What about the TGI (IGROV1 ovarian) of the same compound?
Its TGI is greater than 100 µM.

And the GI50 (SF-539 CNS)?
Its GI50 is 20.1 µM.

And the TGI (SF-539 CNS)?
Its TGI is 40.1 µM.

What about the GI50 (HL-60(TB) leukemia) of the same compound?
The GI50 was 26.5 µM.

And the TGI (HL-60(TB) leukemia)?
The TGI was 53.4 µM.

And the GI50 (BT-549 breast)?
The GI50 was 22 µM.

And the TGI (BT-549 breast)?
The TGI was 51.2 µM.

What about the GI50 (HCC-2998 colon) of the same compound?
The GI50 was 23.3 µM.

And the TGI (HCC-2998 colon)?
The TGI was 68.8 µM.

And the GI50 (OVCAR-5 ovarian)?
The GI50 was 27.5 µM.

What about the TGI (OVCAR-5 ovarian) of the same compound?
The TGI was greater than 100 µM.

What about the GI50 (SW-620 colon) of the same compound?
The GI50 was 31.1 µM.

And the TGI (SW-620 colon)?
The TGI was 97.4 µM.

And the GI50 (SK-MEL-5 melanoma)?
Its GI50 is 20.6 µM.

What about the TGI (SK-MEL-5 melanoma) of the same compound?
The TGI was 37.6 µM.

What about the GI50 (UO-31 renal) of the same compound?
Its GI50 is 13.8 µM.

What about the TGI (UO-31 renal) of the same compound?
The TGI was 39.2 µM.

What about the GI50 (SK-OV-3 ovarian) of the same compound?
Its GI50 is greater than 100 µM.

What about the TGI (SK-OV-3 ovarian) of the same compound?
The TGI was greater than 100 µM.

And the GI50 (SF-268 CNS)?
Its GI50 is 37.1 µM.

What about the TGI (SF-268 CNS) of the same compound?
Its TGI is greater than 100 µM.

What about the GI50 (MOLT-4 leukemia) of the same compound?
The GI50 was 22.2 µM.

What about the TGI (MOLT-4 leukemia) of the same compound?
Its TGI is 44.6 µM.

And the GI50 (OVCAR-8 ovarian)?
Its GI50 is 32.5 µM.

What about the TGI (OVCAR-8 ovarian) of the same compound?
The TGI was greater than 100 µM.

What about the GI50 (TK-10 renal) of the same compound?
The GI50 was 34.7 µM.

What about the TGI (TK-10 renal) of the same compound?
The TGI was greater than 100 µM.

And the GI50 (MDA-MB-435)?
Its GI50 is 20.7 µM.

What about the TGI (MDA-MB-435) of the same compound?
Its TGI is 45.2 µM.

And the GI50 (786-0 renal)?
The GI50 was 28.7 µM.

And the TGI (786-0 renal)?
The TGI was 72.8 µM.

What about the GI50 (HT29 colon) of the same compound?
The GI50 was 39.4 µM.

And the TGI (HT29 colon)?
Its TGI is greater than 100 µM.

What about the GI50 (EKVX NSCLC) of the same compound?
The GI50 was 22 µM.

And the TGI (EKVX NSCLC)?
Its TGI is 63.3 µM.

What about the GI50 (RPMI-8226 leukemia) of the same compound?
Its GI50 is 18.7 µM.

What about the TGI (RPMI-8226 leukemia) of the same compound?
Its TGI is 41.2 µM.

What about the GI50 (T-47D breast) of the same compound?
Its GI50 is 43.7 µM.

What about the TGI (T-47D breast) of the same compound?
The TGI was greater than 100 µM.

What about the GI50 (KM12 colon) of the same compound?
Its GI50 is 29.4 µM.

And the TGI (KM12 colon)?
The TGI was 80 µM.

And the GI50 (OVCAR-4 ovarian)?
The GI50 was 34.7 µM.

And the TGI (OVCAR-4 ovarian)?
The TGI was greater than 100 µM.

And the GI50 (A498 renal)?
Its GI50 is 22.3 µM.

And the TGI (A498 renal)?
The TGI was 52.3 µM.

What about the GI50 (RXF 393 renal) of the same compound?
Its GI50 is 20.3 µM.

And the TGI (RXF 393 renal)?
The TGI was greater than 100 µM.

What about the GI50 (NCI-H23 lung) of the same compound?
The GI50 was 28.4 µM.

And the TGI (NCI-H23 lung)?
Its TGI is greater than 100 µM.

What about the GI50 (LOX IMVI melanoma) of the same compound?
The GI50 was 18.4 µM.

And the TGI (LOX IMVI melanoma)?
Its TGI is 40.2 µM.

And the GI50 (HOP-62 NSCLC)?
Its GI50 is 25.1 µM.

And the TGI (HOP-62 NSCLC)?
The TGI was 75.2 µM.

What about the GI50 (HCT-116 colon) of the same compound?
The GI50 was 36.8 µM.

And the TGI (HCT-116 colon)?
Its TGI is greater than 100 µM.

What about the GI50 (HCT-15 colon) of the same compound?
Its GI50 is 24.1 µM.

And the TGI (HCT-15 colon)?
The TGI was 84.7 µM.

And the GI50 (MALME-3M melanoma)?
The GI50 was 40.3 µM.

What about the TGI (MALME-3M melanoma) of the same compound?
The TGI was 81.7 µM.

And the GI50 (DU-145 prostate)?
The GI50 was 29.9 µM.

And the TGI (DU-145 prostate)?
The TGI was greater than 100 µM.

What about the GI50 (SF-295 CNS) of the same compound?
Its GI50 is 16 µM.

What about the TGI (SF-295 CNS) of the same compound?
Its TGI is 37.1 µM.

And the GI50 (OVCAR-3 ovarian)?
The GI50 was 23.2 µM.

What about the TGI (OVCAR-3 ovarian) of the same compound?
Its TGI is 50.2 µM.

What about the GI50 (U251 CNS) of the same compound?
Its GI50 is 31.7 µM.

What about the TGI (U251 CNS) of the same compound?
Its TGI is greater than 100 µM.

And the GI50 (SN12C renal)?
The GI50 was 19.1 µM.

What about the TGI (SN12C renal) of the same compound?
Its TGI is 47.7 µM.

What about the GI50 (ACHN renal) of the same compound?
Its GI50 is 15.9 µM.

And the TGI (ACHN renal)?
The TGI was 52.1 µM.

What about the GI50 (SK-MEL-2 melanoma) of the same compound?
The GI50 was 19 µM.

What about the TGI (SK-MEL-2 melanoma) of the same compound?
The TGI was 64.2 µM.

And the GI50 (NCI-H460 lung)?
Its GI50 is 37.1 µM.

And the TGI (NCI-H460 lung)?
Its TGI is greater than 100 µM.

And the GI50 (UACC-62 melanoma)?
Its GI50 is 15.1 µM.

What about the TGI (UACC-62 melanoma) of the same compound?
Its TGI is 34.2 µM.
